{"source": "patent US11020409B2", "about": "“Broad antiviral therapy with membrane modifying oxysterols” (priority 2012, dated 2021)", "key": {"[1]": {"test_system": "HIV NL4-3 encoding Vpr-BlaM (NL4-3/BlaM)", "assay_type": "cell-based, human-immunodeficiency virus"}, "VSV-GFP [2]": {"test_system": "VSV-GFP", "test": "microbe, parasite or virus in culture", "assay_type": "cell-based, vesicular stomatitis virus"}, "HIV-IIIB pseudovirus": {"test_system": "HIV-IIIB pseudovirus", "assay_type": "cell-based, human-immunodeficiency virus"}, "pseudotyped HIV-IIIB": {"test_system": "pseudotyped HIV-IIIB", "assay_type": "cell-based, human-immunodeficiency virus"}, "VSV": {"test_system": "VSV", "assay_type": "cell-based, vesicular stomatitis virus"}, "[3]": {"test_system": "Nipah virus (Bangladesh strain)", "assay_type": "cell-based"}, "[4]": {"test_system": "replication-competent VSV", "assay_type": "cell-based, vesicular stomatitis virus"}, "adenovirus-GFP": {"test_system": "adenovirus-GFP", "assay_type": "cell-based"}, "HIV NL4-R3A": {"test_system": "HIV NL4-R3A", "test": "HIV infection in DKO-hu humanized mice", "assay_type": "in vivo, HIV-1"}, "VSV-GFP [5]": {"test_system": "VSV-GFP", "assay_type": "cell-based, vesicular stomatitis virus"}, "HIV NL4-3": {"test_system": "HIV NL4-3", "assay_type": "cell-based, human-immunodeficiency virus"}, "NL4-3-GFP": {"test_system": "NL4-3-GFP", "assay_type": "cell-based, human-immunodeficiency virus"}, "[6]": {"test_system": "Rift Valley Fever Virus ZH501 (RVFV)", "assay_type": "cell-based"}, "[7]": {"test_system": "RVFV (MP12 vaccine strain)", "assay_type": "cell-based, Rift Valley Fever Virus"}, "[8]": {"test_system": "Nipah fusion (F) and attachment (G) proteins", "assay_type": "cell-based, Nipah virus"}, "Ebola Zaire-GFP (EBOV)": {"test_system": "Ebola Zaire-GFP (EBOV)", "assay_type": "cell-based, Ebola virus"}, "[9]": {"test_system": "Russian Spring-Summer Encephalitis Virus (RSSEV)", "assay_type": "cell-based"}, "VSV-G/BlaM": {"test_system": "VSV-G/BlaM", "assay_type": "cell-based, vesicular stomatitis virus"}, "VSVΔG-Luc/G pseudovirus": {"test_system": "VSVΔG-Luc/G pseudovirus", "assay_type": "cell-based, vesicular stomatitis virus"}}, "note": "pIC50: −log10 of the molar value. Where “and” joins values, the source holds several entries; their conditions need not be identical. Identical values can stand only once. Like-named read-outs stand apart in the source and are kept apart here.", "data": [{"molecule": "c1cc(CN2CCCNCCNCCCNCC2)ccc1CN1CCCNCCNCCCNCC1", "note": "[AMD3100, reference compound]", "values": [{"measurement": "NL4-3/Bla entry", "setting": "[1]", "result": "abrogated"}]}, {"molecule": "CC(C)CC[C@@H](O)[C@@H](C)[C@H]1CC[C@H]2[C@@H]3CC=C4C[C@@H](O)CC[C@]4(C)[C@H]3CC[C@]12C", "note": "[22R-HC, 22-(R)-hydroxycholesterol, reference compound]", "values": [{"measurement": "antiviral effect on VSV-GFP", "setting": "VSV-GFP [2]", "result": "did not confer antiviral effect"}]}, {"molecule": "C[C@H](CCCC(C)(C)O)[C@H]1CC[C@H]2[C@@H]3CC=C4C[C@@H](O)CC[C@]4(C)[C@H]3CC[C@]12C", "note": "[25HC, 25-hydroxycholesterol]", "values": [{"measurement": "inhibition of luciferase expression from single round infection", "setting": "HIV-IIIB pseudovirus", "result": "> 50", "unit": "%"}, {"measurement": "inhibition of lateRT expression", "setting": "pseudotyped HIV-IIIB", "result": "> 99% and ~70%"}, {"measurement": "pIC50", "setting": "VSV-GFP [2]; Vesicular stomatitis virus, HEK-293T, read-out: IC50 of inhibition of VSV-GFP expression by FACs", "result": "~6.00"}, {"measurement": "VSV binding (VSV genomic RNA)", "setting": "VSV", "result": "did not inhibit binding significantly"}, {"measurement": "replication of Nipah, dose dependence", "setting": "[3]", "result": "dose-dependent manner"}, {"measurement": "replication of live Nipah (Bangladesh)", "setting": "[3]", "result": "inhibited replication"}, {"measurement": "reduction in the amount of VSV produced (viral genome copies by qRT-PCR)", "setting": "[4]", "result": "> 80", "unit": "%"}, {"measurement": "infectious titer of viruses from treated cells normalized for viral gRNA", "setting": "[4]; 2.5 uM", "result": "equivalent plaque forming units"}, {"measurement": "adenovirus coexpressing GFP measured by FACS", "setting": "adenovirus-GFP", "result": "not affected"}, {"measurement": "reduction of HIV RNA (copies/mL) in serum vs vehicle-treated mice", "setting": "HIV NL4-R3A; 50 mg/kg i.p. 12 h prior to infection and every day, 7 dpi, P<0.0001", "result": "> 80", "unit": "%"}, {"measurement": "HIV p24 in CD4 T-cells from spleens", "setting": "HIV NL4-R3A; 50 mg/kg i.p. daily, 14 dpi", "result": "significantly lower"}, {"measurement": "HIV-mediated CD4 T-cell depletion in peripheral blood leukocytes", "setting": "HIV NL4-R3A; 50 mg/kg i.p. daily, CD3+ T-cell population, P<0.05", "result": "prevented HIV-mediated CD4 T-cell depletion"}, {"measurement": "HIV-mediated CD4 T-cell depletion in the spleen", "setting": "HIV NL4-R3A; 50 mg/kg i.p. daily, P=0.06", "result": "less significant"}, {"measurement": "VSV replication", "setting": "VSV-GFP [5]", "result": "reduced VSV replication"}, {"measurement": "LDH in supernatants of cells", "setting": "HEK293T", "result": "did not increase LDH"}, {"measurement": "LDH level", "setting": "HEK293T", "result": "increased"}, {"measurement": "inhibition of p24 expression compared to vehicle", "setting": "HIV NL4-3", "result": "~80", "unit": "%"}, {"measurement": "GFP expression from NL4-3-GFP (HIV transcription and translation)", "setting": "NL4-3-GFP", "result": "did not suppress GFP expression"}, {"measurement": "HIV p24 expression in supernatants of transfected cells (budding)", "setting": "NL4-3-GFP", "result": "did not affect"}, {"measurement": "replication of live RVFV", "setting": "[6]", "result": "inhibited replication"}, {"measurement": "replication of RVFV (MP12), dose dependence", "setting": "[7]", "result": "dose-dependent manner"}, {"measurement": "syncytia formation", "setting": "[8]", "result": "less syncytia formation"}, {"measurement": "reduction of fusion (nuclei per syncytia) relative to ethanol control", "setting": "[8]; 2 uM", "result": "~50", "unit": "%"}, {"measurement": "reduction of fusion (nuclei per syncytia) relative to ethanol control", "setting": "[8]; 10 uM", "result": "~60", "unit": "%"}, {"measurement": "replication of live Ebola (EBOV-Zaire)", "setting": "Ebola Zaire-GFP (EBOV)", "result": "inhibited replication"}, {"measurement": "replication of live RSSEV", "setting": "[9]", "result": "inhibited replication"}, {"measurement": "VSV-G/BlaM entry", "setting": "VSV-G/BlaM", "result": "dose-dependent inhibition"}, {"measurement": "VSV-G mediated infection, addition concurrently or 1 hpi", "setting": "VSVΔG-Luc/G pseudovirus", "result": "not significantly inhibited"}, {"measurement": "inhibition of VSVΔG-Luc expression, pre-treatment", "setting": "VSVΔG-Luc/G pseudovirus", "result": "greater inhibition"}, {"measurement": "decrease in NL4-3/Bla blue-green ratio at endpoint", "setting": "[1]", "result": "~60", "unit": "%"}, {"measurement": "reduction in cells expressing cleaved CCF2-AM by FACS", "setting": "[1]", "result": "> 85", "unit": "%"}]}, {"molecule": "CN(C)CCCN1c2ccccc2Sc2ccc(Cl)cc21", "note": "[CPZ, reference compound]", "values": [{"measurement": "VSV binding (VSV genomic RNA)", "setting": "VSV", "result": "did not inhibit binding significantly"}]}, {"molecule": "CC(C)CC[C@H](O)[C@@H](C)[C@H]1CC[C@H]2[C@@H]3CC=C4C[C@@H](O)CC[C@]4(C)[C@H]3CC[C@]12C", "note": "[22S-HC, 22-(S)-hydroxycholesterol, reference compound]", "values": [{"measurement": "effect on HIV p24 expression", "setting": "HIV NL4-3", "result": "no effect"}]}, {"molecule": "Cc1c(O)cccc1C(=O)N[C@@H](CSc1ccccc1)[C@H](O)CN1C[C@H]2CCCC[C@H]2C[C@H]1C(=O)NC(C)(C)C", "note": "[Nelfinavir, reference compound]", "values": [{"measurement": "inhibition of p24 expression in supernatants", "setting": "NL4-3-GFP", "result": "> 50", "unit": "%"}]}, {"molecule": "Cc1cn([C@H]2C[C@H](N=[N+]=[N-])[C@@H](CO)O2)c(=O)[nH]c1=O", "note": "[AZT, reference compound]", "values": [{"measurement": "inhibition of luciferase expression from single round infection", "setting": "HIV-IIIB pseudovirus", "result": "~70", "unit": "%"}]}]}
